Experiments:
Assay in all cases: relative viability (nuclei count vs DMSO), 5 days (fraction); higher = more cells survive
BGJ398 + Trametinib = compound: CCN1CCN(c2ccc(Nc3cc(N(C)C(=O)Nc4c(Cl)c(OC)cc(OC)c4Cl)ncn3)cc2)CC1 [BGJ398] + CC(=O)Nc1cccc(-n2c(=O)n(C3CC3)c(=O)c3c(Nc4ccc(I)cc4F)n(C)c(=O)c(C)c32)c1 [Trametinib] (partner 0.02 µM)
Method in brief: (§1)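 Each reported value is a median over duplicate plates. It expresses relative viability: treated-well nuclei count divided by vehicle-well nuclei count. Lung cancer cell lines in 1536-well plates were dosed by pin tool a day after seeding, alone with one drug or with a fixed anchor-drug dose plus five library-drug doses (not always all listed) in √10 steps, and nuclei were counted after 5 days.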

[1] = compound: C1=CC2=NC=CN=C2C=C1/C=C/3\C(=O)NC(=O)S3 + O=C(CCCCCCC(=O)Nc1ccccc1)NO [Vorinostat] (partner 1 µM)
Method in brief: as §1

BGJ398 + Navitoclax = compound: CCN1CCN(c2ccc(Nc3cc(N(C)C(=O)Nc4c(Cl)c(OC)cc(OC)c4Cl)ncn3)cc2)CC1 [BGJ398] + CC1(C)CCC(c2ccc(Cl)cc2)=C(CN2CCN(c3ccc(C(=O)NS(=O)(=O)c4ccc(N[C@H](CCN5CCOCC5)CSc5ccccc5)c(S(=O)(=O)C(F)(F)F)c4)cc3)CC2)C1 [Navitoclax] (partner 0.5 µM)
Method in brief: as §1

[2] = compound: C1=CC2=NC=CN=C2C=C1/C=C/3\C(=O)NC(=O)S3 + COc1cc2c(Oc3ccc(NC(=O)C4(C(=O)Nc5ccc(F)cc5)CC4)cc3F)ccnc2cc1OCCCN1CCOCC1 [Foretinib] (partner 0.25 µM)
Method in brief: as §1

Row | Cell Line | relative viability (BGJ398 + Trametinib; first compound 0.01 µM) | relative viability (BGJ398 + Trametinib; first compound 0.03162 µM) | relative viability (BGJ398 + Trametinib; first compound 0.1 µM) | relative viability (BGJ398 + Trametinib; first compound 0.3162 µM) | relative viability (BGJ398 + Trametinib; first compound 1 µM) | relative viability ([1]; first compound 0.02 µM) | relative viability ([1]; first compound 0.06325 µM) | relative viability ([1]; first compound 0.2 µM) | relative viability ([1]; first compound 0.6325 µM) | relative viability ([1]; first compound 2 µM) | relative viability (BGJ398 + Navitoclax; first compound 0.01 µM) | relative viability (BGJ398 + Navitoclax; first compound 0.03162 µM) | relative viability (BGJ398 + Navitoclax; first compound 0.1 µM) | relative viability (BGJ398 + Navitoclax; first compound 0.3162 µM) | relative viability (BGJ398 + Navitoclax; first compound 1 µM) | relative viability ([2]; first compound 0.02 µM) | relative viability ([2]; first compound 0.06325 µM) | relative viability ([2]; first compound 0.2 µM) | relative viability ([2]; first compound 0.6325 µM) | relative viability ([2]; first compound 2 µM)
1 | LU99A | 0.461 | 0.487 | 0.498 | 0.401 | 0.401 | 0.425 | 0.515 | 0.506 | 0.42 | 0.268 | 0.769 | 0.755 | 0.696 | 0.724 | 0.512 | 0.727 | 0.743 | 0.792 | 0.822 | 0.614
2 | LXF-289 | 0.567 | 0.649 | 0.672 | 0.563 | 0.593 | 0.778 | 0.576 | 0.73 | 0.778 | 0.852 | 0.933 | 0.905 | 0.892 | 0.873 | 0.831 | 0.925 | 0.92 | 0.953 | 0.982 | 0.908
3 | NCI-H23 | 0.348 | 0.438 | 0.441 | 0.377 | 0.322 | 0.508 | 0.588 | 0.697 | 0.546 | 0.385 | 0.874 | 0.765 | 0.848 | 0.896 | 0.865 | 1.12 | 0.976 | 1.02 | 0.902 | 0.856
4 | NCI-H322M | 0.587 | 0.465 | 0.511 | 0.435 | 0.507 | 0.893 | 0.852 | 0.905 | 0.891 | 0.744 | 1.23 | 1.26 | 1.05 | 1.2 | 1.31 | 0.969 | 0.918 | 0.932 | 0.906 | 0.669
5 | NCI-H441 | – | 0.484 | 0.52 | 0.429 | 0.436 | 0.794 | 0.786 | 0.948 | 0.845 | 0.509 | 0.577 | 0.795 | 0.501 | 0.604 | 0.722 | 0.925 | 1.09 | 1.06 | 0.925 | 0.668
6 | NCI-H460 | 0.0671 | 0.131 | 0.209 | 0.13 | 0.0628 | 0.657 | 0.668 | 0.759 | 0.716 | 0.819 | 1.01 | 1.11 | 1.4 | 1.12 | 1.33 | 0.936 | 0.833 | 1.03 | 0.953 | 1
7 | NCI-H520 | 0.586 | 0.548 | 0.351 | 0.189 | 0.205 | 0.879 | 0.834 | 0.645 | 0.802 | 0.677 | 1.11 | 1.04 | 0.833 | 0.633 | 0.547 | 0.71 | 0.719 | 0.846 | 0.674 | 0.648
8 | NCI-H596 | 0.719 | 0.631 | 0.773 | 0.709 | 0.62 | 0.581 | 0.59 | 0.646 | 0.499 | 0.6 | 0.96 | 0.645 | 0.698 | 0.73 | 0.614 | 0.856 | 0.863 | 1.05 | 0.742 | 0.899
9 | NCI-H647 | 0.374 | 0.573 | 0.526 | 0.447 | 0.345 | 0.545 | 0.898 | 0.485 | 0.546 | 0.494 | 0.97 | 1.26 | 1.4 | 1.14 | 1.01 | 1.1 | 1.39 | 1.17 | 1.11 | 1.21
10 | NCI-H727 | 0.417 | 0.412 | 0.381 | 0.389 | 0.385 | 1.23 | 1.15 | 1.23 | 1.22 | 0.679 | 0.487 | 0.485 | 0.337 | 0.547 | 0.453 | 0.954 | 0.852 | 1.04 | 0.853 | 0.588
11 | NCI-H838 | 0.41 | 0.537 | 0.51 | 0.403 | 0.382 | 0.674 | 0.702 | 0.762 | 0.686 | 0.579 | 1.08 | 1.11 | 1.03 | 0.907 | 0.917 | 1.02 | 1.08 | 1 | 1.02 | 0.874
12 | NCI-H1355 | 0.374 | 0.44 | 0.452 | 0.382 | 0.329 | 0.584 | 0.571 | 0.623 | 0.631 | 0.519 | 0.955 | 0.92 | 0.996 | 0.914 | 0.825 | 0.816 | 0.976 | 1.02 | 0.936 | 0.929
13 | NCI-H1395 | 0.986 | 0.963 | 0.666 | 0.555 | 0.587 | 1 | 0.733 | 0.824 | 0.77 | 0.668 | 1.08 | 1.36 | 1.13 | 0.996 | 0.848 | 1.04 | 1.03 | 1 | 0.871 | 1.03
14 | NCI-H1437 | 0.59 | 0.508 | 0.559 | 0.519 | 0.393 | 0.728 | 0.874 | 0.815 | 0.811 | 0.815 | 1.1 | 1.12 | 1.07 | 1.08 | 1.06 | 1.19 | 1.24 | 1.16 | 1.25 | 1.15
15 | NCI-H1650 | 0.503 | 0.568 | 0.471 | 0.304 | 0.25 | 0.572 | 0.556 | 0.589 | 0.525 | 0.512 | 0.859 | 1.04 | 0.649 | 0.699 | 0.817 | 1 | 0.956 | 1.07 | 1.13 | 1.08
